Measurements reported in US8420592B2, “Methods of treatment using single doses of oritavancin” (The Medicines Company, priority 2008, dated 2013).
Values after ≈ are worked out from the molar mass of the structure shown.

Legend:
[1] = system: cSSSI due to gram-positive pathogens; assay: Phase 2 randomized double-blind study of three oritavancin dose regimens in cSSSI: clinical response at test-of-cure; type: in vivo, human; settings: for Cure (cure and improvement), % of patients: TOC
Protocol: A phase 2, multi-center, randomized, double-blind, parallel, active-comparator study in which three dose regimens of oritavancin were explored as a treatment for cSSSI due to gram-positive pathogens was conducted using: a daily dose (200 mg) administered for three to seven days, a single dose (1200 mg), and an infrequent dose (800 mg dose with option for an additional 400 mg on Day 5).
Patients were randomized through an interactive voice response system in a 1:1:1 ratio to receive either 1) oritavancin […] daily dose: 200 mg IV daily for 3 to 7 days as determined by the investigator based on clinical criteria, 2) oritavancin single dose: 1200 mg oritavancin IV on Day 1, or; 3) oritavancin infrequent dose: 800 mg IV on Day 1 with optional 400 mg IV on Day 5 as determined by investigator based on clinical criteria. During randomization patients were stratified by disease categories of wound infection, major abscess, and cellulitis. Placebo IV (5% dextrose in water) was given to maintain the blind.
Analyses were performed on four patient populations: intent-to-treat (ITT), modified intent-to-treat (MITT), clinically evaluable (CE) and microbiologically evaluable (ME). The ITT population included patients who were randomized to treatment and received any amount of study medication. Two patients who were potentially unblinded were excluded from the ITT population for all efficacy analyses. The MITT population included all ITT patients with a gram-positive pathogen isolated at baseline.
The primary efficacy endpoint was the clinical response in the CE population at TOC, which occurred 20 to 28 days after study enrollment on Day 1. Clinical response was determined by the investigator as part of the end-of-therapy, TOC, and late follow-up procedures by assessing signs and symptoms including fever, pain, tenderness, erythema, induration, edema, purulent drainage, eschar, and devitalized tissue. A clinical response of cure, improvement, failure, or indeterminate was assigned at end-of-therapy and TOC by the investigator based on clinical signs and symptoms. At late follow-up, the investigator could assign the clinical response of relapse in addition to cure, improvement, or indeterminate. Only patients with a clinical response of cure or improvement at TOC were assessed for clinical response at late follow-up.
Cure was defined as resolution of purulent drainage, pain, edema, fever, erythema, tenderness, and induration. Serous drainage or aspirate and/or granulation tissue could be present. Improvement was defined as resolution of purulent drainage and, in the case of cellulitis, cessation of fever and pain. Residual erythema, edema, pain (in the case of wound or abscess), tenderness, and/or induration could be present as could serous drainage, granulation tissue, eschar, and/or devitalized tissue. Failure included any of the following: presence of purulent drainage (or aspirate) and/or fever; the unanticipated need for abscess drainage or removal of sutures (for treatment of infection)>48 hours after initiation of study therapy; or treatment with nonstudy systemic antibiotic having activity against gram-positive pathogen(s) for the primary infection site or use of topical antibiotics at the site of primary infection 24 hours or more after initiation of study medication therapy.
The primary efficacy endpoint was clinical response (either cure or improvement versus failure) at TOC in the CE population. The primary efficacy analyses were a comparison of the proportions of CE patients with a clinical response of cure (defined as investigator assessment of cure or improvement) in the daily dose group compared to, 1) the single dose group and 2) the infrequent dose group. Adjusted estimates for the differences in response rates and the corresponding confidence intervals (CI) were constructed using the Mantel-Haenszel method stratified by disease category.

MRSA = assay: MIC by broth microdilution with 0.002% polysorbate-80, baseline isolates of MITT population; type: cell-based; settings: Staphylococcus aureus; MRSA subset
Protocol: (§1) Blood and infection site cultures were obtained within three days of enrollment (often done at the time of enrollment). End-of-therapy, TOC, and late follow-up (or at early relapse) cultures were obtained from the infection site if clinically indicated. […] Specimens were cultured and pathogens were identified at each investigative site's certified laboratory. All isolated gram-positive pathogen(s) that were obtained from the infection site at baseline/randomization and up to and including the TOC time point were subcultured and sent to a central laboratory (Covance Clinical Laboratories, Indianapolis, Ind.) for confirmatory identification and susceptibility testing. In cases of discrepancy between the local and the central laboratory, central laboratory results were used.
(§2) At least one gram-positive organism was isolated from the infection site at baseline in 209 patients (69.2%) in the ITT population. The most commonly isolated pathogen was S. aureus, which was isolated from 87.6% (183/209) of MITT patients. MRSA was isolated in 49% (103/209) of MITT patients. The other three most common pathogens identified in the MITT population were Streptococcus pyogenes (5.7%, 12/209), Streptococcus agalactiae (3.8%, 8/209) and Enterococcus faecalis (3.8%, 8/209). The range of oritavancin minimum inhibitory concentrations (MICs) for S. aureus in the MITT population, as assessed using broth microdilution with 0.002% polysorbate-80, was 0.008 to 0.5 μg/mL.

MSSA = assay: as above; type: cell-based; settings: Staphylococcus aureus; MSSA subset
Protocol: as §1, §2

S. aureus = assay: as above; type: cell-based; settings: Staphylococcus aureus; all S. aureus
Protocol: as §1, §2

[2] = Clinically evaluable, cellulitis
[3] = Clinically evaluable, major abscess
[4] = Clinically evaluable, Mantel-Haenszel stratified by disease
[5] = Intent to treat, Mantel-Haenszel stratified by disease
[6] = Microbiologically evaluable, Mantel-Haenszel stratified by disease
[7] = Modified intent-to-treat, Mantel-Haenszel stratified by disease

## CN[C@H](CC(C)C)C(=O)N[C@H]1C(=O)N[C@@H](CC(N)=O)C(=O)N[C@H]2C(=O)N[C@H]3C(=O)N[C@H](C(=O)N[C@H](C(=O)O)c4cc(O)cc(O)c4-c4cc3ccc4O)[C@H](O[C@H]3C[C@](C)(N)[C@@H](O)[C@H](C)O3)c3ccc(c(Cl)c3)Oc3cc2cc(c3O[C@@H]2O[C@H](CO)[C@@H](O)[C@H](O)[C@H]2O[C@H]2C[C@](C)(NCc3ccc(-c4ccc(Cl)cc4)cc3)[C@@H](O)[C@H](C)O2)Oc2ccc(cc2Cl)[C@H]1O [Oritavancin, N-(4-(4-chlorophenyl)benzyl)A82846B]
[1]; [2]
  Estimated Difference in cure rate 800 mg − 200 mg: 14.4%
  Estimated Difference in cure rate 1200 mg − 200 mg: 29.2%
[1]; Clinically evaluable, cellulitis, 200 mg IV daily for 3 to 7 days
  Cure (cure and improvement), % of patients: 58.3%
[1]; Clinically evaluable, cellulitis, 800 mg IV Day 1 with optional 400 mg Day 5
  Cure (cure and improvement), % of patients: 72.7%
[1]; Clinically evaluable, cellulitis, single dose 1200 mg IV Day 1
  Cure (cure and improvement), % of patients: 87.5%
[1]; [3]
  Estimated Difference in cure rate 800 mg − 200 mg: −4.8%
  Estimated Difference in cure rate 1200 mg − 200 mg: −2.3%
[1]; Clinically evaluable, major abscess, 200 mg IV daily for 3 to 7 days
  Cure (cure and improvement), % of patients: 92.3%
[1]; Clinically evaluable, major abscess, 800 mg IV Day 1 with optional 400 mg Day 5
  Cure (cure and improvement), % of patients: 87.5%
[1]; Clinically evaluable, major abscess, single dose 1200 mg IV Day 1
  Cure (cure and improvement), % of patients: 90.0%
[1]; Clinically evaluable, wound
  Estimated Difference in cure rate 800 mg − 200 mg: 6.6%
  Estimated Difference in cure rate 1200 mg − 200 mg: 1.3%
[1]; Clinically evaluable, wound, 200 mg IV daily for 3 to 7 days
  Cure (cure and improvement), % of patients: 65.4%
[1]; Clinically evaluable, wound, 800 mg IV Day 1 with optional 400 mg Day 5
  Cure (cure and improvement), % of patients: 72.0%
[1]; Clinically evaluable, wound, single dose 1200 mg IV Day 1
  Cure (cure and improvement), % of patients: 66.7%
[1]; [4]
  Estimated Difference in cure rate 800 mg − 200 mg: 5.2%
  Estimated Difference in cure rate 1200 mg − 200 mg: 8.6%
[1]; Clinically evaluable, 200 mg IV daily for 3 to 7 days
  Cure (cure and improvement), % of patients: 72.4%
[1]; Clinically evaluable, 800 mg IV Day 1 with optional 400 mg Day 5
  Cure (cure and improvement), % of patients: 77.5%
[1]; Clinically evaluable, single dose 1200 mg IV Day 1
  Cure (cure and improvement), % of patients: 81.5%
[1]; Clinically evaluable, infrequent dose group, 800 mg Day 1 plus optional 400 mg Day 5
  Cure rate: 77.1%
[1]; Clinically evaluable, infrequent dose group, only 800 mg on Day 1
  Cure rate: 78.3%
[1]; [5]
  Estimated Difference in cure rate 800 mg − 200 mg: 5.1%
  Estimated Difference in cure rate 1200 mg − 200 mg: 8.7%
[1]; Intent to treat, 200 mg IV daily for 3 to 7 days
  Cure (cure and improvement), % of patients: 72.4%
[1]; Intent to treat, 800 mg IV Day 1 with optional 400 mg Day 5
  Cure (cure and improvement), % of patients: 78.2%
[1]; Intent to treat, single dose 1200 mg IV Day 1
  Cure (cure and improvement), % of patients: 81.8%
[1]; [6]
  Estimated Difference in cure rate 800 mg − 200 mg: 11.0%
  Estimated Difference in cure rate 1200 mg − 200 mg: 8.5%
[1]; Microbiologically evaluable, 200 mg IV daily for 3 to 7 days
  Cure (cure and improvement), % of patients: 69.1%
[1]; Microbiologically evaluable, 800 mg IV Day 1 with optional 400 mg Day 5
  Cure (cure and improvement), % of patients: 81.3%
[1]; Microbiologically evaluable, single dose 1200 mg IV Day 1
  Cure (cure and improvement), % of patients: 79.3%
[1]; [7]
  Estimated Difference in cure rate 800 mg − 200 mg: 11.1%
  Estimated Difference in cure rate 1200 mg − 200 mg: 10.1%
[1]; Modified intent-to-treat, 200 mg IV daily for 3 to 7 days
  Cure (cure and improvement), % of patients: 68.8%
[1]; Modified intent-to-treat, 800 mg IV Day 1 with optional 400 mg Day 5
  Cure (cure and improvement), % of patients: 80.6%
[1]; Modified intent-to-treat, single dose 1200 mg IV Day 1
  Cure (cure and improvement), % of patients: 80.3%
[1]; daily dose group (200 mg)
  Patients with cellulitis who failed having unplanned surgical procedures or interventions: 29%
[1]; daily dose group, late follow-up
  Relapse in CE patients: no patients
[1]; infrequent dose group (800 mg)
  Patients with cellulitis who failed having unplanned surgical procedures or interventions: 7%
[1]; infrequent dose group, late follow-up
  Relapse rate in CE patients: 3.7%
[1]; single dose group (1200 mg), n/total
  Patients with cellulitis who failed having unplanned surgical procedures or interventions: 0/9
[1]; single dose group, late follow-up
  Relapse rate in CE patients: 1.6%
MRSA
  MIC90: 0.12 mg/L (≈ 0.0669 µM)
MSSA
  MIC90: 0.12 mg/L (≈ 0.0669 µM)
S. aureus
  MIC90: 0.12 mg/L (≈ 0.0669 µM)
